Assay results as given in patent US20140294873A1, “SMALL MOLECULE SCREEN FOR INHIBITORS OF NFAT: AP-1: DNA INTERACTIONS” (CHILDREN'S MEDICAL CENTER CORPORATION, priority 2011, published 2014).
“Also recorded” adds a separate entry of the source.

T1: NFAT:DNA complex (Homo sapiens, UniProt Q13469)
T1 construct: The NFAT DBD containing a His tag was cloned into the pQE vector; His tag (MRGSHHHHHH leader) (N); made in house
T1 sequence (Q13469 with tags, fused parts or gaps): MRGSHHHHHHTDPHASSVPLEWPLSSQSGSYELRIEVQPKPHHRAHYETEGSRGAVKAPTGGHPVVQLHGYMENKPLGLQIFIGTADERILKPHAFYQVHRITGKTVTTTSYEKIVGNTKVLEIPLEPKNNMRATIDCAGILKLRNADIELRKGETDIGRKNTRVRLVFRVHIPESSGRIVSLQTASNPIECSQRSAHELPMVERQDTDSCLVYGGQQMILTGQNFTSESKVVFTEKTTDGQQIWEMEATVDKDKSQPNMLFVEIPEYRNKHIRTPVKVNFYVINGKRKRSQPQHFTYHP

T2: NFAT DNA-binding domain (NFAT-DBD) (UniProt Q13469 SEQ:15-300)
T2 chain: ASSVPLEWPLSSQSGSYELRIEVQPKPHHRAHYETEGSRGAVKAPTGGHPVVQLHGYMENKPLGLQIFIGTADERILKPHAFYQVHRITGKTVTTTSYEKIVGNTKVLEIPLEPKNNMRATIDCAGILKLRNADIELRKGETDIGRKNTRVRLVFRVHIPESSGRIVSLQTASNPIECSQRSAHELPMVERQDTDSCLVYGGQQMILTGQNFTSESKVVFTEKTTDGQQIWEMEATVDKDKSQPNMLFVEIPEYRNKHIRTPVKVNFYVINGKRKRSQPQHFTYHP

B1: ARRE2 probe, 32P (dsDNA)
DNA 1: CCTTCTGTATGAAACAAATTTTCCTCTTTG
DNA 2: CAAAGAGGAAAATTTGTTTCATACAGAAGG

Experiments:
Foxp3 = assay: Treg-associated gene upregulation under iTreg-polarizing conditions (real time RT-PCR); assay type: cell-based, mouse; settings: activation in the presence of TGFβ (iTreg polarizing)
Procedure: (§1) T cell activation assays: Mouse CD4 T cells were isolated using the Dynal CD4 T cell positive isolation kit (Invitrogen) and activated with 1 μg/mL αCD3/αCD28 for 48-60 h under non-polarizing or Th1-conditions (10 ng/mL IL-12 and 10 μg/mL αIL-4). CD4CD25+ T cells were depleted from purified CD4 T cells using a CD25 microbead MACS kit (Miltenyi Biotech), and CD4CD25− T cells were activated with αCD3/αCD28 in the presence of 3 ng/mL TGF[…] (iTreg-polarizing conditions).
(§2) Real time RT-PCR: Total RNA was isolated from cell pellets using the RNeasy kit (Qiagen) followed by first-strand synthesis using SuperScript III (Invitrogen). Synthesized cDNA was amplified using the FastStart Universal SYBRGreen Master Mix (Roche). PCR data was collected using the StepOne Plus Real-Time PCR System (Applied Biosystems) and gene expression normalized to an endogenous GAPDH control using the ΔΔCT method; primer sequences have been described elsewhere.

[1] = system: IL-2 and TNFα production in activated CD4 T cells; assay: Intracellular cytokine FACS in restimulated CD4 T cells; assay type: cell-based, mouse; settings: for inhibition of IL-2/TNFα production: restimulation with αCD3/αCD28 instead of PMA/ionomycin
Procedure: as §1
(§3) For restimulation, T cells from primary cultures were rested for 3-4 d, washed, counted and stimulated for 4 h with 10 nM PMA and varied concentrations of ionomycin; where indicated, CsA was added to cells at a final concentration of 2 μM 20′ before activation while compounds were added 45-60′ before activation. Brefeldin A was added at 10 μg/mL for the final 2-2.5 h of stimulation. T cells were fixed with 4% paraformaldehyde, permeabilized in saponin buffer and stained for intracellular cytokines; data were collected on a FACSCalibur instrument (BD Biosciences).

CD69 = CD69 upregulation in restimulated CD4 T cells; assay type: cell-based, mouse; settings: 4 h activation period, also at high concentrations
Procedure: as §3

CD4 T cells = assay: Cytotoxicity / live cell numbers in restimulated CD4 T cells; assay type: cell-based, mouse; settings: for cell numbers within the live cell gate: 4 h restimulation with compound; for cytotoxicity: at the concentrations tested
Procedure: as §3

NFAT:AP-1:DNA complex = target: T3, NFAT:AP-1:DNA complex (Homo sapiens, UniProt P01100+P05412+Q13469, C154S/C269S); assay: EMSA, NFAT:AP-1:DNA complex formation; assay type: binding; settings: for assembly of the ternary complex: 6.25 mM compound; for inhibition of formation of the NFAT:AP-1:DNA complex: 32P end-labeled ARRE2, compound added before probe; for inhibition of NFAT:AP-1:DNA complex formation: compound in the 0-300 μM range
T3 construct: The NFAT DBD containing a His tag was cloned into the pQE vector; Fos and Jun bZIP domains (each encompassing 63 amino acids) were cloned into pETa vectors; His tag ([…] leader) (N); made in house; host or cells: E. coli Codon Plus BL21 (DE3) RIL for Fos and Jun; bacterial expression from a pQE vector for NFAT DBD
T3 sequence (P01100 with tags, fused parts or gaps C154S, one chain of several): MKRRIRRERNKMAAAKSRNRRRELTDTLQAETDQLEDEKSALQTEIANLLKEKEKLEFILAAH
T3 sequence (P05412 with tags, fused parts or gaps C269S, one chain of several): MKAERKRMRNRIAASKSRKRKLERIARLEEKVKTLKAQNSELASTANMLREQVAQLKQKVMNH
Procedure: (§4) EMSAs: Probe labeling: Annealed double-stranded ARRE2 was end-labeled using T4 polynucleotide kinase by incubating 50-100 ng DNA with 20 μCi 32P-γATP (Perkin Elmer) at 37° C. for 1 h followed by heat inactivation of the enzyme at 65° C. for 15′ and purification of radiolabeled ARRE2 using MicroSpin G-25 columns (GE Biosciences).
(§5) Binding reactions were set up in EMSA buffer (10 mM HEPES pH=7.5, 120 mM NaCl, 10% glycerol, 0.8 mg/mL BSA, 1 mM DTT) in the presence of complete protease inhibitor (Roche). Compounds CID 2740816 (1668 P02) and CID 5713461 (1661 N20) (Ryan Scientific) were resuspended in DMSO and incubated with 20 nM NFAT and 10 nM AP-1 for 10′ followed by addition of ˜2.5 nM radiolabeled ARRE2 probe. Reactions were then incubated for 30′ at room temperature and loaded on a 4% polyacrylamide gel (pre-run for 30-45′).

EAE in C57BL/6 mice = assay: Passive transfer EAE with compound-treated 2D2 Th1 cells; assay type: in vivo, mouse
Procedure: EAE induction: CD4 T cells from 2D2 transgenic mice were activated with 0.2 μg/mL αCD3/αCD28 under Th1-polarizing conditions for 48-60 h in the presence of DMSO or compound as indicated. T cells were rested and expanded for 2 d followed by restimulation with 0.1 μg/mL αCD3/αCD28 for 24 h in the presence of DMSO or compound. Cells were resuspended in 1×PBS and injected intraperitoneally into female 8 wk old C57BL/6 mice, 1.5 million T cells per mouse. Mice were monitored for weight loss and development of disease symptoms using a standard clinical scale: 0, healthy; 1, flaccid tail; 2, ataxia/paresis of hind limbs; 3, paralysis of hind limbs; 4, tetraparalysis; 5, moribund or death W.

[2] = system: IFNγ production in 2D2 CD4 T cells; assay: IFNγ production after compound treatment during Th1 activation; assay type: cell-based, mouse; settings: 7.8 μM during activation under Th1 conditions, compared to DMSO
Procedure: as §1, §3

NFAT:DNA complex = target: T1, NFAT:DNA complex; assay: EMSA, NFAT:DNA complex; assay type: binding; settings: high concentration (6.25 mM)
Procedure: as §4, §5

IL-17 in CD4 T cells = assay: IL-17 levels after compound treatment during primary Th17 differentiation; assay type: cell-based, mouse
[3] = system: proinflammatory mediator mRNA in Th1 cells; assay: Real time RT-PCR of T cells used for EAE induction; assay type: cell-based, mouse; settings: for IL-2 mRNA transcript / IL-24 transcript levels / IP-10 transcript levels: compared to DMSO controls
Text: as §2

[4] = target: T2, NFAT DNA-binding domain (NFAT-DBD); assay: EMSA; settings: tags: His tag (MRGSHHHH..), pQE vector, E. coli; label: 32P 5'-end
[5] = 10 nM PMA, ionomycin 100 nM or 300 nM
[6] = 10 nM PMA/100 nM ionomycin, 4 h
[7] = Th1 cells treated with 7.8 μM compound, IP transfer
[8] = compared to 1668 P02- or DMSO-treated Th1 transfer groups

Row | Molecule | upregulation of Treg-associated genes, notably Foxp3 (Foxp3) | inhibition of IL-2 and TNFα production [1, 6] | inhibition of IL-2 and TNFα production ([1]; 10 nM PMA/500 nM ionomycin) | inhibition of IL-2/TNFα production [1] | upregulation of CD69 (CD69) | cell numbers within the live cell gate (CD4 T cells) | cytotoxicity (CD4 T cells) | assembly of the ternary complex (NFAT:AP-1:DNA complex) | inhibition of formation of the NFAT:AP-1:DNA complex (NFAT:AP-1:DNA complex) | inhibition of NFAT:AP-1:DNA complex formation (NFAT:AP-1:DNA complex) | levels of IFNγ production [2] | effect on the NFAT:DNA complex (NFAT:DNA complex) | IL-17 levels upon restimulation (IL-17 in CD4 T cells) | IL-2 mRNA transcript [3] | IL-24 transcript levels [3] | IP-10 transcript levels [3] | other results
1 | N#C/C(=N/Nc1ccc2c(c1)OCO2)C(=O)N1CCCC1 [1661 N20] | did not affect | inhibit production | inhibitory | acute inhibition | not affected; also recorded: unaffected | no apparent change; also recorded: unchanged | neither compound appeared to be cytotoxic | almost abrogate | modestly inhibit | modest inhibition | slight decrease | unaffected; also recorded: neither compound had an inhibitory effect | remained unchanged | highly significant reduction | remained unchanged | actually higher | reduction in MFI of IL-2 [1, 5]: ≤ 50%; reduction in MFI of TNFα [1, 5]: ≤ 50%; kinetics of disease development (EAE in C57BL/6 mice; [7]): clearly delayed kinetics; severity of clinical symptoms of EAE (EAE in C57BL/6 mice; [7]): reduced severity; also recorded: decreased severity; mean clinical score (EAE in C57BL/6 mice; [8]): significantly lower; percentage weight loss (EAE in C57BL/6 mice; [8]): significantly lower; GM-CSF transcript levels ([3]; relative to DMSO controls): significantly reduced; levels of IFNγ mRNA ([3]; relative to DMSO controls): significantly reduced
2 | O=C1CCCC(=O)C1=NNc1cc(C(F)(F)F)ccc1OCC(F)(F)F [1668 P02] | did not affect | inhibit production | to a lesser extent | acute inhibition | not affected; also recorded: unaffected | no apparent change; also recorded: unchanged | neither compound appeared to be cytotoxic | almost abrogate | modestly inhibit | modest inhibition | slight decrease | unaffected; also recorded: neither compound had an inhibitory effect | remained unchanged | not statistically significant | remained unchanged | actually higher | disease curve relative to DMSO-treated Th1 transfer group (EAE in C57BL/6 mice; Th1 cells treated with compound, IP transfer): overlapping disease curves
3 | B1 | – | – | – | – | – | – | – | – | – | – | – | – | – | – | – | – | binding result [4]: binds
